Test results reported in ChEMBL document CHEMBL1122370 (J Med Chem, 1983).

Key:
Mus musculus [1] = assay: Average weight of the mouse after treating with 60 mg/kg dose for 1 day; format: functional
Mus musculus [2] = assay: Average weight of the mouse after treating with 30 mg/kg dose for 1 day; format: functional
L1210 [3] = assay: In vivo anti tumor activity against L1210 leukemia in 5 mice measured as Increased life span at 45 mg/kg; format: functional; conditions: Mus musculus
L1210 [4] = assay: In vivo antitumor activity against L1210 leukemia in 5 mice measured as median survival range at 30 mg/kg; Value ranges from (10-14); format: functional, Mus musculus
Mus musculus [5] = assay: Average weight change in mouse after treating with 60 mg/kg dose for 7 days.; format: functional
Mus musculus [6] = assay: Average weight change in mouse after treating with 30 mg/kg dose for 7 days.; format: functional
L1210 [7] = assay: In vivo anti tumor activity against L1210 leukemia in 9 mice measured as Increased life span at 60 mg/kg; format: functional; conditions: Mus musculus
L1210 [8] = assay: In vivo antitumor activity against L1210 leukemia in 9 mice measured as median survival range at 60 mg/kg; Value ranges from (18-21); format: functional, Mus musculus
L1210 [9] = assay: In vivo antitumor activity against L1210 leukemia in 5 mice measured as median survival range at 40 mg/kg; Value ranges from(13-19).; format: functional, Mus musculus
Mus musculus [10] = assay: Average weight of the mouse after treating with 80 mg/kg dose for 1 day.; format: functional; set-up: unit not given here
L1210 [11] = assay: In vivo antitumor activity against L1210 leukemia in 15 mice measured as T/C values(days); T/C = 15/9; format: functional, Mus musculus
L1210 [12] = assay: In vivo antitumor activity against L1210 leukemia in 5 mice measured as median survival range at 20 mg/kg; Value ranges from(12-13); format: functional, Mus musculus
Mus musculus [13] = assay: Average weight of the mouse after treating with 40 mg/kg dose for 1 day.; format: functional; set-up: unit not given here
L1210 [14] = assay: In vivo antitumor activity against L1210 leukemia in 13 mice measured as T/C values(days); T/C = 13/9; format: functional, Mus musculus
L1210 [15] = assay: In vivo antitumor activity against L1210 leukemia in 5 mice measured as Increased life span at 20 mg/kg.; format: functional; conditions: Mus musculus
Mus musculus [16] = assay: Average weight of the mouse after treating with 20 mg/kg dose for 1 day.; format: functional; set-up: unit not given here
L1210 [17] = assay: In vivo antitumor activity against L1210 leukemia in 5 mice measured as Increased life span at 40 mg/kg.; format: functional; conditions: Mus musculus
L1210 [18] = assay: In vivo antitumor activity against L1210 leukemia in 5 mice measured as median survival range at 80 mg/kg; Value ranges from(13-26).; format: functional, Mus musculus
L1210 [19] = assay: In vivo antitumor activity against L1210 leukemia in 18 mice measured as T/C values(days); T/C = 18/9; format: functional, Mus musculus
Mus musculus [20] = assay: Average weight of the mouse after treating with 40 mg/kg dose for 7 days.; format: functional; set-up: unit not given beside the values
Mus musculus [21] = assay: Average weight of the mouse after treating with 20 mg/kg dose for 7 days.; format: functional; set-up: unit not given beside the values
Mus musculus [22] = assay: Average weight of the mouse after treating with 80 mg/kg dose for 7 days.; format: functional; set-up: unit not given beside the values
L1210 [23] = assay: In vivo antitumor activity against L1210 leukemia in 5 mice measured as Increased life span at 80 mg/kg.; format: functional; conditions: Mus musculus
Mus musculus [24] = assay: Average weight of the mouse after treating with 7.5 mg/kg dose for 1 day; format: functional
L1210 [25] = assay: In vivo anti tumor activity against L1210 leukemia in 5 mice measured as Increased life span at 7.5 mg/kg; format: functional; conditions: Mus musculus
Mus musculus [26] = assay: Average weight change in mouse after treating with 7.5 mg/kg dose for 7 days.; format: functional
Mus musculus [27] = assay: In vivo antitumor activity against L1210 leukemia in 5 mice measured as weight change in 7 days(% weight); format: functional
L1210 [28] = assay: In vivo antitumor activity against L1210 leukemia in 5 mice measured as median survival range at 15 mg/kg; Value ranges from (14-18); format: functional, Mus musculus
Mus musculus [29] = assay: Average weight of the mouse after treating with 15 mg/kg dose for 1 day; format: functional
L1210 [30] = assay: In vivo anti tumor activity against L1210 leukemia in 5 mice measured as Increased life span at 15 mg/kg; format: functional; conditions: Mus musculus
L1210 [31] = assay: In vivo antitumor activity against L1210 leukemia in 5 mice measured as median survival range at 7.5 mg/kg; Value ranges from (10-14); format: functional, Mus musculus
L1210 [32] = assay: In vivo anti tumor activity against L1210 leukemia in 5 mice measured as Increased life span at 15 mg/kg.; format: functional; conditions: Mus musculus
Mus musculus [33] = assay: Average weight of the mouse after treating with 30 mg/kg dose for 7 day.; format: functional
L1210 [34] = assay: In vivo antitumor activity against L1210 leukemia in 5 mice measured as median survival range at 15 mg/kg; Value ranges from (12-14).; format: functional, Mus musculus
Mus musculus [35] = assay: Average weight change in mouse after treating with 15 mg/kg dose for 7 days.; format: functional
L1210 [36] = assay: In vivo antitumor activity against L1210 leukemia in 12 mice measured as T/C values; T/C = 12/9; format: functional, Mus musculus
L1210 [37] = assay: In vivo antitumor activity against L1210 leukemia in 5 mice measured as median survival range at 30 mg/kg; Value ranges from(17-22).; format: functional, Mus musculus
Mus musculus [38] = assay: Average weight of the mouse after treating with 30 mg/kg dose for 1 day.; format: functional
Mus musculus [39] = assay: Average weight of the mouse after treating with 15 mg/kg dose for 1 day.; format: functional
L1210 [40] = assay: In vivo antitumor activity against L1210 leukemia in 5 mice measured as Increased life span at 30 mg/kg.; format: functional; conditions: Mus musculus
L1210 [41] = assay: In vivo antitumor activity against L1210 leukemia in 18 mice measured as T/C values; T/C = 18/9; format: functional, Mus musculus
L1210 [42] = assay: In vivo antitumor activity against L1210 leukemia in 5 mice measured as median survival range at 45 mg/kg; Value ranges from(14-19); format: functional, Mus musculus
L1210 [43] = assay: In vivo antitumor activity against L1210 leukemia in 18 mice measured as T/C values(days); T/C = 18/11; format: functional, Mus musculus
L1210 [44] = assay: In vivo antitumor activity against L1210 leukemia in 20 mice measured as T/C values(days); T/C = 20/11; format: functional, Mus musculus
Mus musculus [45] = assay: Average weight of the mouse after treating with 45 mg/kg dose for 1 day.; format: functional
Mus musculus [46] = assay: Average weight of the mouse after treating with 90 mg/kg dose for 1 day.; format: functional
L1210 [47] = assay: In vivo antitumor activity against L1210 leukemia in 5 mice measured as median survival range at 90 mg/kg; Value ranges from(15-24); format: functional, Mus musculus
L1210 [48] = assay: In vivo antitumor activity against L1210 leukemia in 5 mice measured as Increased life span at 45 mg/kg.; format: functional; conditions: Mus musculus
Mus musculus [49] = assay: Average weight of the mouse after treating with 90 mg/kg dose for 7 days.; format: functional
Mus musculus [50] = assay: Average weight of the mouse after treating with 45 mg/kg dose for 7 days.; format: functional
L1210 [51] = assay: In vivo antitumor activity against L1210 leukemia in 5 mice measured as Increased life span at 90 mg/kg.; format: functional; conditions: Mus musculus

Compound: CCCCCCCCCCCCOC(=O)CCC(NC(=O)c1ccc(N(C)Cc2cnc3nc(N)nc(N)c3n2)cc1)C(=O)OCCCCCCCCCCCC (stereo unspecified)
- Average weight (Mus musculus [1]): 24.2
- Average weight (Mus musculus [2]): 23.2
- ILS at 45 mg/kg (L1210 [3]): 33%
- Range (L1210 [4]): 14
- Weight change (Mus musculus [5]): 0
- Weight change (Mus musculus [6]): 3
- ILS at 60 mg/kg (L1210 [7]): 100%
- Range (L1210 [8]): 21

Compound: CC(C)CCOC(=O)CCC(NC(=O)c1cc(Cl)c(N(C)Cc2cnc3nc(N)nc(N)c3n2)c(Cl)c1)C(=O)OCCC(C)C (stereo unspecified)
- Range (L1210 [9]): 19
- Average weight (Mus musculus [10]): 20.8
- T/C (L1210 [11]): 9
- Range (L1210 [12]): 13
- Average weight (Mus musculus [13]): 21.2
- T/C (L1210 [14]): 9
- ILS at 20 mg/kg (L1210 [15]): 44%
- Average weight (Mus musculus [16]): 22.1
- ILS at 40 mg/kg (L1210 [17]): 67%
- Range (L1210 [18]): 26
- T/C (L1210 [19]): 9
- Weight change (Mus musculus [20]): 0.1
- Weight change (Mus musculus [21]): 2.7
- Weight change (Mus musculus [22]): 1
- ILS at 80 mg/kg (L1210 [23]): 100%

Compound: CCCCCCCCOC(=O)CCC(NC(=O)c1ccc(N(C)Cc2cnc3nc(N)nc(N)c3n2)cc1)C(=O)OCCCCCCCC (stereo unspecified)
- Average weight (Mus musculus [24]): 26.4
- ILS at 7.5 mg/kg (L1210 [25]): 44%
- Weight change (Mus musculus [26]): 0.4
- Weight change (Mus musculus [27]): 0.8
- Range (L1210 [28]): 18
- Average weight (Mus musculus [29]): 25.2
- ILS at 15 mg/kg (L1210 [30]): 66%
- Range (L1210 [31]): 14

Compound: CN(Cc1cnc2nc(N)nc(N)c2n1)c1ccc(C(=O)NC(CCC(=O)OCc2ccccc2)C(=O)OCc2ccccc2)cc1 (stereo unspecified)
- ILS at 15 mg/kg (L1210 [32]): 33%
- Weight change (Mus musculus [33]): 1.6
- Range (L1210 [34]): 14
- Weight change (Mus musculus [35]): 0.4
- T/C (L1210 [36]): 9
- Range (L1210 [37]): 22
- Average weight (Mus musculus [38]): 25.6
- Average weight (Mus musculus [39]): 25.8
- ILS at 30 mg/kg (L1210 [40]): 100%
- T/C (L1210 [41]): 9

Compound: CCCCOC(=O)CCC(NC(=O)c1cc(Cl)c(N(C)Cc2cnc3nc(N)nc(N)c3n2)c(Cl)c1)C(=O)OCCCC (stereo unspecified)
- Range (L1210 [42]): 19
- T/C (L1210 [43]): 11
- T/C (L1210 [44]): 11
- Average weight (Mus musculus [45]): 25
- Average weight (Mus musculus [46]): 27.8
- Range (L1210 [47]): 24
- ILS at 45 mg/kg (L1210 [48]): 64%
- Weight change (Mus musculus [49]): 3.8
- Weight change (Mus musculus [50]): 1
- ILS at 90 mg/kg (L1210 [51]): 82%
